# Test results taken from patent US7091033B2, “Array of toxicologically relevant canine genes and uses thereof” (Phase-1 Molecular Toxicology, Inc., priority 2000, dated 2006).
# Read-outs that look alike come from different tables or passages of the source.
# Tests used:
# Assay type in all cases: in vivo
# [1] = tested on: Cytochrome P450 2B (gene expression); assay: Canine array gene expression profile of liver from dog dosed with erythromycin estolate; details: dog, liver, 100 mg/kg
# Description: (§1) For liver or kidney, about 0.15-0.20 g of tissue was weighed and placed in a 15 ml conical tube. All tissue were kept on dry ice when other samples were being weighed.
# (§2) About 3.8 ml of RLT buffer was added to the tube containing the sample. The RLT buffer® from Qiagen can be prepared beforehand by adding 10 μl betamercaptoethanol to each 1.0 ml of lysis buffer needed. The tissue was homogenized using the rotor-stator homogenizer for 45 seconds. A IKA Ultra Turrax T25 homogenizer set at speed 4 with the S25N-10G dispersing element can be used. Alternatively, a Virtishear Cyclone 750W rotor/stator homogenizer (Virtis item #278077) can be used with the 7 mm microfine sawtooth shaft and generator (195 mm long with a processing range of 0.25 ml to 20 ml, item #372718). After homogenization, samples were stored on ice until all samples were homogenized. To clean the homogenizing tip between samples, the tip was first run for a few seconds in 95% ethanol and then rinsed by squirting with fresh 95% ethanol. This process was repeated with nanopure water.
# (§3) The tissue lysate was centrifuged at room temperature for 10 minutes at 3700-3800 rpm in a Beckman GS-6 (or equivalent) centrifuge to remove nuclei thus reducing DNA contamination.
# (§4) The supernatant of the lysate was transferred to a clean 15 ml conical tubes containing an equal volume of 70% EtOH in DEPC treated H2O, being careful not to include any of the pellet or fatty layer and mixed. About 3.8 ml of sample was added to the RNeasy spin column placed in a 15 ml centrifuge tube and centrifuged at 3000×g (3690-3710 rpm, Beckman GS-6) for 5 min. The flow-through was discarded. The remaining sample was added to the appropriate column and spun at 3000×g for 5 minutes and the flow-through was discarded.
# (§5) About 4.0 ml of Buffer RW1 (Qiagen®) was added to the column and spun as before then about 2.5 ml of buffer RPE (Qiagen®) was added to column and spun at 3000×g (3690-3710 rpm, Beckman GS-6) for 2 minutes. In this example, RPE buffer was supplied as a concentrate so 4 volumes of 95% EtOH was added before use. For the midi kit, about 220 ml of 95% EtOH would be added to 55 ml of RPE. Another 2.5 ml of buffer RPE was added and spun for 5 minutes to also dry out column. The column, including the tip, should be dry for the next elution step.
# (§6) For elution, the column that has the RNA bound to a clean 15 ml tube was transferred and 200 μl of RNase-free water was added to the column, allowed to sit for 1 minute, and spun for 3 minutes at 3000×g (3690-3710 rpm, Beckman GS6). This step was repeated into the same tube but with 200 μl RNase-free water.
# (§7) Liver and kidney organs were isolated from a dog which was dosed with erythromycin esolate at 100 mg/kg/day for 2 or 10 days. The dog was euthanized 16 hours after the last dosage and the organs were harvested according to standard sterile procedure. RNA was isolated from the kidney and liver as detailed in Example 1. cDNA was made from the RNA and used as probes as detailed in the Examples above.
# [2] = tested on: Cytochrome P450 2C21 (gene expression); assay: as above; details: dog, liver, 100 mg/kg
# Description: as §1, §2, §3, §4, §5, §6, §7
# [3] = tested on: Cytochrome P450 2D (gene expression); assay: as above; details: dog, liver, 100 mg/kg
# Description: as §1, §2, §3, §4, §5, §6, §7
# [4] = tested on: canine liver gene expression; assay: as above; details: Canis lupus familiaris, 240 h, 10 days
# Description: as §1, §2, §3, §4, §5, §6, §7
# Cytochrome P450 2C21 = assay: Canine array gene expression profile of kidney from dog dosed with erythromycin estolate; details: dog, kidney, 100 mg/kg
# Description: as §1, §2, §3, §4, §5, §6, §7
# Cytochrome P450 2C41 = assay: as above; details: dog, kidney, 100 mg/kg
# Description: as §1, §2, §3, §4, §5, §6, §7
# [5] = tested on: Cytochrome P450 2D (gene expression); assay: as above; details: dog, kidney, 100 mg/kg
# Description: as §1, §2, §3, §4, §5, §6, §7
# Cytochrome P450 3A = assay: as above; details: dog, kidney, 100 mg/kg
# Description: as §1, §2, §3, §4, §5, §6, §7
# Glucose transporter = assay: as above; details: dog, kidney, 100 mg/kg
# Description: as §1, §2, §3, §4, §5, §6, §7
# [6] = tested on: Glutathione S-transferase alpha subunit; assay: as above; details: dog, kidney, 100 mg/kg
# Description: as §1, §2, §3, §4, §5, §6, §7
# [7] = tested on: Multidrug resistant protein-1; assay: as above; details: dog, kidney, 100 mg/kg
# Description: as §1, §2, §3, §4, §5, §6, §7
compound,measurement,setting,value
CCC(=O)O[C@H]1[C@H](O[C@@H]2[C@@H](C)[C@H](O[C@H]3C[C@@](C)(OC)[C@@H](O)[C@H](C)O3)[C@@H](C)C(=O)O[C@H](CC)[C@@](C)(O)[C@H](O)[C@@H](C)C(=O)[C@H](C)C[C@@]2(C)O)O[C@H](C)C[C@@H]1N(C)C [erythromycin estolate],fold induction at 10 days,[1],1.9
same,fold induction at 10 days,[2],1.3
same,fold induction at 10 days,[3],1.1
same,fold induction at 100 mg/kg,[4]; read-out: Alkaline phosphatase fold induction,1.5
same,fold induction at 100 mg/kg,[4]; read-out: Angiopoietin-related protein 3 (ANGPTL3) fold induction,1.5
same,fold induction at 100 mg/kg,[4]; read-out: BR-cadherin fold induction,1.2
same,fold induction at 100 mg/kg,[4]; read-out: BRCA1 fold induction,1.5
same,fold induction at 100 mg/kg,[4]; read-out: Beta-glucuronidase fold induction,1.5
same,fold induction at 100 mg/kg,"[4]; read-out: Canis familiaris mitochondrion, complete genome fold induction",1.1
same,fold induction at 100 mg/kg,[4]; read-out: Catalase fold induction,1.4
same,fold induction at 100 mg/kg,[4]; read-out: Caveolin-2 fold induction,1.2
same,fold induction at 100 mg/kg,[4]; read-out: Cubilin fold induction,1.1
same,fold induction at 100 mg/kg,[4]; read-out: Cytochrome c oxidase subunit II fold induction,1.6
same,fold induction at 100 mg/kg,[4]; read-out: Cytochrome c oxidase subunit VIIaL fold induction,1
same,fold induction at 100 mg/kg,[4]; read-out: c-erb B-2 fold induction,1.3
same,fold induction at 10 days,Cytochrome P450 2C21,1.1
same,fold induction at 10 days,Cytochrome P450 2C41,1.2
same,fold induction at 10 days,[5],1.1
same,fold induction at 10 days,Cytochrome P450 3A,1.3
same,fold induction at 10 days,Glucose transporter,1.1
same,fold induction at 10 days,[6],1.1
same,fold induction at 10 days,[7],1.2
